Source: patent US10076519B2 (CYTOKINETICS, INC., priority 2010, dated 2018)

Test system: rabbit skeletal myofibrils (fast skeletal myofibrils)
Experiment: Activation of fast skeletal myofibrils (PUMA assay, PK/LDH-coupled ATPase at pCa25)
Type: biochemical
Method in brief: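 Detergent-washed rabbit psoas myofibrils (~90% fast fibres, calcium-regulated) assayed at calcium giving 25% of maximal ATPase rate (pCa25). ADP turnover coupled via pyruvate kinase/lactate dehydrogenase to NADH oxidation, read at 340 nm. Buffer 12 mM PIPES, 2 mM MgCl2, 1 mM DTT, pH 6.8; AC1.4 values derived.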

[1] = AC1.4 determined according to the procedure of Example 39, reported as class symbols
[2] = median AC1.4 reported as class, procedure of Example 39
[3] = median AC1.4 class, procedure of Example 39

Structure (SMILES)	Mean AC1.4 [3]	further results
CC(C)(CNc1ccc(C(=O)N2CCC(C(N)=O)C2)nn1)c1ccc(F)cc1 (stereo not shown) [1-[(6-{[2-(4-fluorophenyl)-2-methylpropyl]amino}pyridazin-3-yl)carbonyl]pyrrolidine-3-carboxamide]	–	Mean AC1.4 [1]: D (D=>20 uM)
CC(C)(CNc1ccc(C(=O)NC2(C(N)=O)CC2)nn1)c1ccc(F)cc1 [1-[(6-{[2-(4-fluorophenyl)-2-methylpropyl]amino}pyridazin-3-yl)carbonylamino]cyclopropane-carboxamide]	–	Mean AC1.4 [1]: D (D=>20 uM)
CC(C)(CNc1ccc(C(=O)NC2(C(=O)O)CC2)nn1)c1ccc(F)cc1 [1-[(6-{[2-(4-fluorophenyl)-2-methylpropyl]amino}pyridazin-3-yl)carbonylamino]cyclopropane-carboxylic acid]	–	Mean AC1.4 [1]: D (D=>20 uM)
CC(=O)N1CC(CNc2ccc(-c3ccc4[nH]ncc4c3)nn2)(c2ncccc2F)C1 [1-acetyl-3-(3-fluoro(2-pyridyl))-3-{[(6-(1H-indazol-5-yl)pyridazin-3-yl)amino]methyl}azetidine]	–	Mean AC1.4 [1]: D (D=>20 uM)
CC(=O)N1CC=C(c2ccc(NCC(C)(C)c3ccc(F)cc3)nn2)CC1 [1-acetyl-4-(6-{[2-(4-fluorophenyl)-2-methylpropyl]amino}pyridazin-3-yl)-1,2,5,6-tetrahydropyridine]	–	Mean AC1.4 [1]: D (D=>20 uM)
CC(=O)N1CCN(Cc2cnc(-c3ccc(NCC4(c5ncccc5F)CCC4)nn3)s2)CC1 [1-acetyl-4-({2-[6-({[(3-fluoro(2-pyridyl))cyclobutyl]methyl}ami-no)pyridazin-3-yl](1,3-thiazol-5-yl)}methyl)piperazine]	–	Mean AC1.4 [2]: D (D=>20 uM)
CC(O)c1cnc(-c2ccc(NCC3(c4ncccc4F)CCC3)nn2)s1 (stereo not shown) [1-{2-[6-({[(3-fluoro-2-pyridyl)cyclobutyl]methyl}ami-no)pyridazin-3-yl]-1,3-thiazol-5-yl}ethan-1-ol]	B (B=1-10 uM)	–
O=C(NCc1cnc(-c2ccc(NCC3(c4ncccc4F)CCC3)nn2)s1)c1ncn[nH]1 [1H-1,2,4-triazol-5-yl-N-({2-[6-({[(3-fluoro(2-pyridyl))cyclobutyl]methyl}ami-no)pyridazin-3-yl](1,3-thiazol-5-yl)}methyl)carboxamide]	A (A=<1 uM)	–
OC(c1cnc(-c2ccc(NCC3(c4ncccc4F)CCC3)nn2)s1)C(F)(F)F (stereo not shown) [2,2,2-trifluoro-1-{2-[6-({[(3-fluoro(2-pyridyl))cyclobutyl]methyl}ami-no)pyridazin-3-yl](1,3-thiazol-5-yl)}ethan-1-ol]	B (B=1-10 uM)	–
OC(O)(c1cnc(-c2ccc(NCC3(c4ncccc4F)CCC3)nn2)s1)C(F)(F)F [2,2,2-trifluoro-1-{2-[6-({[(3-fluoro(2-pyridyl))cyclobutyl]methyl}ami-no)pyridazin-3-yl](1,3-thiazol-5-yl)}ethane-1,1-diol]	B (B=1-10 uM)	–
OC(c1cnc(-c2ccc(NCC3(c4ncccc4F)CCC3)nn2)s1)C(F)F (stereo not shown) [2,2-difluoro-1-{2-[6-({[(3-fluoro(2-pyridyl))cyclobutyl]methyl}ami-no)pyridazin-3-yl](1,3-thiazol-5-yl)}ethan-1-ol]	B (B=1-10 uM)	–
CNC(=O)Cc1csc(NC(=O)c2ccc(NCC3(c4ncccc4F)CCC3)nn2)n1 [2-(2-{[6-({[(3-fluoro(2-pyridyl))cyclobutyl]methyl}ami-no)pyridazin-3-yl]carbonylamino}(1,3-thiazol-4-yl))-N-methylacetamide]	–	Mean AC1.4 [2]: A (A=<1 uM)
CC(C)(Nc1ccc(-c2ncc(C(N)=O)s2)nn1)c1ncccc1Cl [2-(6-{[1-(3-chloro(2-pyridyl))-isopropyl]amino}pyridazin-3-yl)-1,3-thiazole-5-carboxamide]	B (B=1-10 uM)	–
CC(C)(CNc1ccc(-c2ccccc2C(N)=O)nn1)c1ccc(F)cc1 [2-(6-{[2-(4-fluorophenyl)-2-methylpropyl]amino}pyridazin-3-yl)benzamide]	–	Mean AC1.4 [1]: B (B=1-10 uM)
CC(C)(CNc1ccc(-c2cc(C(N)=O)ccn2)nn1)c1ccc(F)cc1 [2-(6-{[2-(4-fluorophenyl)-2-methylpropyl]amino}pyridazin-3-yl)pyridine-4-carboxamide]	–	Mean AC1.4 [1]: A (A=<1 uM)
NC(=O)c1cnc(-c2ccc(NCC3(c4ccccn4)CCC3)nn2)s1 [2-(6-{[(2-pyridylcyclobutyl)methyl]ami-no}pyridazin-3-yl)-1,3-thiazole-5-carboxamide]	A (A=<1 uM)	–
O=C(O)c1cnc(-c2ccc(NCC3(c4ccccn4)CCC3)nn2)s1 [2-(6-{[(2-pyridylcyclobutyl)methyl]ami-no}pyridazin-3-yl)-1,3-thiazole-5-carboxylic acid]	C (C=10-20 uM)	–
NC(=O)c1cnc(-c2ccc(NC3(c4ncccc4F)CCC3)nn2)s1 [2-(6-{[(3-fluoro-2-pyridyl)cyclobutyl]amino}pyr-idazin-3-yl)-1,3-thiazole-5-carboxamide]	B (B=1-10 uM)	–
CC(C)(Nc1ccc(-c2ncc(CC(N)=O)s2)nn1)c1ncccc1Cl [2-[2-(6-{[1-(3-chloro(2-pyridyl))-isopropyl]amino}pyridazin-3-yl)-1,3-thiazol-5-yl]acetamide]	–	Mean AC1.4 [2]: D (D=>20 uM)
CC(C)(CNc1ccc(-c2ncc(CC(N)=O)s2)nn1)c1ncccc1Cl [2-[2-(6-{[2-(3-chloro(2-pyridyl))-2-methylpropyl]amino}pyridazin-3-yl)-1,3-thiazol-5-yl]acetamide]	–	Mean AC1.4 [2]: B (B=1-10 uM)
CC(C)(O)c1n[nH]c2ccc(-c3ccc(NCC(C)(C)c4ccc(F)cc4)nn3)cc12 [2-[5-(6-{[2-(4-fluorophenyl)-2-methylpropyl]amino}pyridazin-3-yl)-1H-indazol-3-yl]propan-2-ol]	–	Mean AC1.4 [1]: B (B=1-10 uM)
CC(C)(Nc1ccc(-c2ncc(C(N)=O)s2)nn1)c1cccc(OC(F)F)n1 [2-[6-({1-[6-(difluoromethoxy)(2-pyridyl)]-isopropyl}amino)pyridazin-3-yl]-1,3-thiazole-5-carboxamide]	B (B=1-10 uM)	–
O=C(c1cnc(-c2ccc(NCC3(c4ncccc4F)CCC3)nn2)s1)N1CCCC(O)C1 (stereo not shown) [2-[6-({[(3-fluoro(2-pyridyl))cyclobutyl]methyl}ami-no)pyridazin-3-yl](1,3-thiazol-5-yl) 3-hydroxypiperidyl ketone]	C (C=10-20 uM)	–
O=C(c1cnc(-c2ccc(NCC3(c4ncccc4F)CCC3)nn2)s1)N1CCC(O)C1 (stereo not shown) [2-[6-({[(3-fluoro(2-pyridyl))cyclobutyl]methyl}ami-no)pyridazin-3-yl](1,3-thiazol-5-yl) 3-hydroxypyrrolidinyl ketone]	C (C=10-20 uM)	–
O=C(c1cnc(-c2ccc(NCC3(c4ncccc4F)CCC3)nn2)s1)N1CCC(O)CC1 [2-[6-({[(3-fluoro(2-pyridyl))cyclobutyl]methyl}ami-no)pyridazin-3-yl](1,3-thiazol-5-yl) 4-hydroxypiperidyl ketone]	C (C=10-20 uM)	–
O=C(c1cnc(-c2ccc(NCC3(c4ncccc4F)CCC3)nn2)s1)N1CCOCC1 [2-[6-({[(3-fluoro(2-pyridyl))cyclobutyl]methyl}ami-no)pyridazin-3-yl](1,3-thiazol-5-yl) morpholin-4-yl ketone]	C (C=10-20 uM)	–
N#Cc1sc(-c2ccc(NCC3(c4ncccc4F)CCC3)nn2)nc1O [2-[6-({[(3-fluoro(2-pyridyl))cyclobutyl]methyl}ami-no)pyridazin-3-yl]-4-hydroxy-1,3-thiazole-5-carbonitrile]	D (D=>20 uM)	–
COc1nc(-c2ccc(NCC3(c4ncccc4F)CCC3)nn2)sc1C(N)=O [2-[6-({[(3-fluoro(2-pyridyl))cyclobutyl]methyl}ami-no)pyridazin-3-yl]-4-methoxy-1,3-thiazole-5-carboxamide]	A (A=<1 uM)	–
COc1nc(-c2ccc(NCC3(c4ncccc4F)CCC3)nn2)sc1C(=O)O [2-[6-({[(3-fluoro(2-pyridyl))cyclobutyl]methyl}ami-no)pyridazin-3-yl]-4-methoxy-1,3-thiazole-5-carboxylic acid]	C (C=10-20 uM)	–

More lines, main results first:

Mean AC1.4 [3]	Structure (SMILES)	further results
C (C=10-20 uM)	CC(=O)c1cnc(-c2ccc(NCC3(c4ncccc4F)CCC3)nn2)s1 [1-{2-[6-({[(3-fluoro-2-pyridyl)cyclobutyl]methyl}ami-no)pyridazin-3-yl]-1,3-thiazol-5-yl}ethan-1-one]	–
A (A=<1 uM)	CC(C)(CNc1ccc(-c2ncc(C(N)=O)s2)nn1)c1ncccc1F [2-(6-{[2-(3-fluoro(2-pyridyl))-2-methylpropyl]amino}pyridazin-3-yl)-1,3-thiazole-5-carboxamide]	–
B (B=1-10 uM)	NC(=O)c1cnc(-c2ccc(NC3(c4ccc(F)cc4)CCC3)nn2)s1 [2-(6-{[(4-fluorophenyl)cyclobutyl]ami-no}pyridazin-3-yl)-1,3-thiazole-5-carboxamide]	–
D (D=>20 uM)	NC(=O)c1ccnc(C2(Nc3ccc(-c4cc(C(N)=O)ccc4F)nn3)CCC2)c1 [2-({[6-(3-carbamoyl-6-fluorophenyl)pyridazin-3-yl]amino}cyclobutyl)pyridine-4-carboxamide]	–
D (D=>20 uM)	Cn1cc(C(N)=O)nc1-c1ccc(NCC2(c3ncccc3F)CCC2)nn1 [2-[6-({[(3-fluoro(2-pyridyl))cyclobutyl]methyl}ami-no)pyridazin-3-yl]-1-methylimidazole-4-carboxamide]	–
B (B=1-10 uM)	Cn1c(C(N)=O)cnc1-c1ccc(NCC2(c3ncccc3F)CCC2)nn1 [2-[6-({[(3-fluoro(2-pyridyl))cyclobutyl]methyl}ami-no)pyridazin-3-yl]-1-methylimidazole-5-carboxamide]	–
B (B=1-10 uM)	NC(=O)c1sc(-c2ccc(NCC3(c4ncccc4F)CCC3)nn2)nc1O [2-[6-({[(3-fluoro(2-pyridyl))cyclobutyl]methyl}ami-no)pyridazin-3-yl]-4-hydroxy-1,3-thiazole-5-carboxamide]	–
B (B=1-10 uM)	Cc1nc(-c2ccc(NCC3(c4ncccc4F)CCC3)nn2)sc1C(N)=O [2-[6-({[(3-fluoro(2-pyridyl))cyclobutyl]methyl}ami-no)pyridazin-3-yl]-4-methyl-1,3-thiazole-5-carboxamide]	–
